The values that follow come from ChEMBL document CHEMBL1126375, “Synthesis of chiral phosphorus mustards derived from serine” (Bioorg Med Chem Lett, 1992).

Calls of active or inactive are those of the source. The calls are words filed in the database; no cut-off is given here.

The test system of assay [1] is Tumor cell line. The experiment in a line: Compound was tested for in vitro activity against tumor cell lines; NA=No activity. The class given is functional, cell-based.
Assay [2] concerns Human immunodeficiency virus 1. The experiment in a line: Compound was tested for in vitro anti-human immunodeficiency virus activity; NA=No activity. It counts as functional, organism-based.

On to `COC(=O)[C@H]1CO[P@](=O)(N(CCCl)CCCl)N1Cc1ccccc1`, for which the outcome in assay [1] and in assay [2] was inactive.
For the molecule `COC(=O)[C@@H]1CO[P@@](=O)(N(CCCl)CCCl)N1Cc1ccccc1` (stereo in doubt; 5b), the result in assay [1] and in assay [2] was inactive.
For the molecule `COC(=O)[C@@H]1CO[P@@](=O)(N(CCCl)CCCl)N1Cc1ccccc1` (stereo in doubt; 7a), the result in assay [1] and in assay [2] was inactive.
As for `COC(=O)[C@@H]1CO[P@@](=O)(N(CCCl)CCCl)N1Cc1ccccc1` (stereo in doubt; 5a), the outcome in assay [1] and in assay [2] was inactive.
